Measurements from patent US7671061B2, “Methods and compositions for treating pain” (Hydra Biosciences, Inc., priority 2005, dated 2010).

Columns and labels:
Stability in rat plasma = format: in vitro ADME; settings: 37° C.
Protocol: Compound 200 was stable in rat plasma for ≧1 hour at 37° C.

[1] = test system: carrageenan-induced inflammation; experiment: Carrageenan model of acute inflammatory pain (paw volume); format: in vivo, rat; settings: IP, carrageenan injected paw
Protocol: In this study, the drug administered was either a TRPA1 inhibitor or the non-steroidal anti-inflammatory diclofenac. Following administration of both carrageenan and drug or vehicle control, paw volume was measured and used to assess decreased inflammation.

hNaV1.2 = hNaV1.2 (Homo sapiens, UniProt Q99250); experiment: hNaV1.2 patch clamp (Qpatch) selectivity; format: cell-based; settings: Table 2
hNaV1.2, sequence (Q99250 whole entry): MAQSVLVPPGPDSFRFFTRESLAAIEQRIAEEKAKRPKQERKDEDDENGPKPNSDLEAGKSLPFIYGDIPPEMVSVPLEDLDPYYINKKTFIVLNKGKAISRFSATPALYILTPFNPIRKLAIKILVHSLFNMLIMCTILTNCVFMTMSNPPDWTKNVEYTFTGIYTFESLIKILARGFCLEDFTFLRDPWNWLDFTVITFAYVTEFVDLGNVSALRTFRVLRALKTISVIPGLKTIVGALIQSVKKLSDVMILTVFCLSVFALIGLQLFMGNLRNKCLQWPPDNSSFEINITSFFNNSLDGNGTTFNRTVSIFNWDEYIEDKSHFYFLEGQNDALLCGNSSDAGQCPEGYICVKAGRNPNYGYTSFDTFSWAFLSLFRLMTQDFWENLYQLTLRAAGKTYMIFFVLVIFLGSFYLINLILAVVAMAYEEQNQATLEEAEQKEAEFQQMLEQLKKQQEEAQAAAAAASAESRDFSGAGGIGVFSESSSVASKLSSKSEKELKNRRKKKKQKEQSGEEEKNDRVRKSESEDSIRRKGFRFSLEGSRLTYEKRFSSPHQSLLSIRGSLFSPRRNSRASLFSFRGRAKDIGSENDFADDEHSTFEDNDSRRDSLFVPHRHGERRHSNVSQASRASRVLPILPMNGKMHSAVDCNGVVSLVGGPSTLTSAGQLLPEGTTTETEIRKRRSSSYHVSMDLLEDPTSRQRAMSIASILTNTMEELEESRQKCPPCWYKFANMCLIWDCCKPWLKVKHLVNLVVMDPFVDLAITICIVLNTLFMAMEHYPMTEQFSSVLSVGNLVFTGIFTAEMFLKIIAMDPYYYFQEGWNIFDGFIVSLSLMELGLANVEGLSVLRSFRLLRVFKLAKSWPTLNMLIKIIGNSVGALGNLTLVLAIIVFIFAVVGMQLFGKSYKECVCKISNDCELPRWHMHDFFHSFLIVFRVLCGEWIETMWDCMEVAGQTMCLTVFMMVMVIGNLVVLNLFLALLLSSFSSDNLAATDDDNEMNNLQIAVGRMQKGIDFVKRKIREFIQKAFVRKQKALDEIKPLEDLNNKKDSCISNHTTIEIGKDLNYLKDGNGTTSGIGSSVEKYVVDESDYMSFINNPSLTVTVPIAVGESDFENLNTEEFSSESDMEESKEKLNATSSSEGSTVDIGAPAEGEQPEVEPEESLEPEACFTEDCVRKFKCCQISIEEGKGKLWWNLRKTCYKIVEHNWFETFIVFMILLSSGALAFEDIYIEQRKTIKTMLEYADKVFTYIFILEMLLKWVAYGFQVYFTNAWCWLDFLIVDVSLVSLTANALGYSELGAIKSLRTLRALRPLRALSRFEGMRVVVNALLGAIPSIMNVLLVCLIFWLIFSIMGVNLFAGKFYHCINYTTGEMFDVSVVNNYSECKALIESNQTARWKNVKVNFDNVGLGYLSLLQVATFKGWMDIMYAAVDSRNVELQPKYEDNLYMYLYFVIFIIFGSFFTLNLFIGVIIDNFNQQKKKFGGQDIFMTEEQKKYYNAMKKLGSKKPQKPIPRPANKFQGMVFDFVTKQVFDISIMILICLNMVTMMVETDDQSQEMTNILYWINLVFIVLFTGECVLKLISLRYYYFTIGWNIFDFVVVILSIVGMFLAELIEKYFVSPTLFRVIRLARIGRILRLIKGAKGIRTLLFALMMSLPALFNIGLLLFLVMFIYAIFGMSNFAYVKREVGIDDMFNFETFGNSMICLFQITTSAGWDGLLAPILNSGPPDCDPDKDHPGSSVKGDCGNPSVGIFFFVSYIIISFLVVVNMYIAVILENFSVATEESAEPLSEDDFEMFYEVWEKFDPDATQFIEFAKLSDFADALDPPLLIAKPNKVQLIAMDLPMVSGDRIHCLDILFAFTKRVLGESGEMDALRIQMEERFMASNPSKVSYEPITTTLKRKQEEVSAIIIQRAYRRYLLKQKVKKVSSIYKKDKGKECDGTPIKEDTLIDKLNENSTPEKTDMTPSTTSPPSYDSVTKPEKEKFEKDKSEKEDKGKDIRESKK

hERG = hERG (Homo sapiens, UniProt Q12809); experiment: in vitro; settings: selective for TRPA1 over hERG
hERG, sequence (Q12809 whole entry): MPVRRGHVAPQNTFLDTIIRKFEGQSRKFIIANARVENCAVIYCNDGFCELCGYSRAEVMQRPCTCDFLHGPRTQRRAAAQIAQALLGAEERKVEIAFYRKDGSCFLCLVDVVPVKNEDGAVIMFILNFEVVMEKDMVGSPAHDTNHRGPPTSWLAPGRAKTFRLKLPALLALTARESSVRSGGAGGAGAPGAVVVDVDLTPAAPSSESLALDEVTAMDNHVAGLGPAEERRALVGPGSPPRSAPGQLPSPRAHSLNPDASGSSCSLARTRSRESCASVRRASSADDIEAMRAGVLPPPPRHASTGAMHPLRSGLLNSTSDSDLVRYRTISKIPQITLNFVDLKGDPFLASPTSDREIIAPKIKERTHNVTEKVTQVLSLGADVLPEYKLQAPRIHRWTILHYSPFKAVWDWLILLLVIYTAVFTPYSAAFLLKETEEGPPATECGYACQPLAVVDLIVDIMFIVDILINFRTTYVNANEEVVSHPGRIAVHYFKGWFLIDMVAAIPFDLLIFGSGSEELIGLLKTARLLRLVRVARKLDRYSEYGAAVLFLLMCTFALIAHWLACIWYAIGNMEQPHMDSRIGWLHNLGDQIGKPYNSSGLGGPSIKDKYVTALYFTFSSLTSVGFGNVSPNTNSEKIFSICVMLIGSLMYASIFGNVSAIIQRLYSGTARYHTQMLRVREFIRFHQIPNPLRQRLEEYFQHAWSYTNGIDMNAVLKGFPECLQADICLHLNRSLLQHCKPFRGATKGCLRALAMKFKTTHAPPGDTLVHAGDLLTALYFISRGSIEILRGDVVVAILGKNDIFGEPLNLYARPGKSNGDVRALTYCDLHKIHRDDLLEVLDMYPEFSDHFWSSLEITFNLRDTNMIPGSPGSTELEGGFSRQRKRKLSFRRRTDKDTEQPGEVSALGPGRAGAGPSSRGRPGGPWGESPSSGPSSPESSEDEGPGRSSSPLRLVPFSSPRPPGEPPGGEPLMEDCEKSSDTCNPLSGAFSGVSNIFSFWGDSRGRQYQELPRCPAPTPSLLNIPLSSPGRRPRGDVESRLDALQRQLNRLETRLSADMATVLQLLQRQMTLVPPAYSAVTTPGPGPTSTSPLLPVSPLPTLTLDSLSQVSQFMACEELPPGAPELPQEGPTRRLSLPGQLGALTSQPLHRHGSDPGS

hTRPA1 [2] = biological target: T1, hTRPA1 (Homo sapiens, UniProt O75762, K186N); experiment: High throughput Ca2+ fluorescence (Fluo4) assay, AITC stimulation; format: cell-based; settings: Table 2; read-out: hTRPA1 Fluor IC50
T1 construct: expressed in transfected cells; host or cells: HEK293/TREx (Invitrogen), induced with tetracycline
T1 sequence (O75762 whole entry K186N): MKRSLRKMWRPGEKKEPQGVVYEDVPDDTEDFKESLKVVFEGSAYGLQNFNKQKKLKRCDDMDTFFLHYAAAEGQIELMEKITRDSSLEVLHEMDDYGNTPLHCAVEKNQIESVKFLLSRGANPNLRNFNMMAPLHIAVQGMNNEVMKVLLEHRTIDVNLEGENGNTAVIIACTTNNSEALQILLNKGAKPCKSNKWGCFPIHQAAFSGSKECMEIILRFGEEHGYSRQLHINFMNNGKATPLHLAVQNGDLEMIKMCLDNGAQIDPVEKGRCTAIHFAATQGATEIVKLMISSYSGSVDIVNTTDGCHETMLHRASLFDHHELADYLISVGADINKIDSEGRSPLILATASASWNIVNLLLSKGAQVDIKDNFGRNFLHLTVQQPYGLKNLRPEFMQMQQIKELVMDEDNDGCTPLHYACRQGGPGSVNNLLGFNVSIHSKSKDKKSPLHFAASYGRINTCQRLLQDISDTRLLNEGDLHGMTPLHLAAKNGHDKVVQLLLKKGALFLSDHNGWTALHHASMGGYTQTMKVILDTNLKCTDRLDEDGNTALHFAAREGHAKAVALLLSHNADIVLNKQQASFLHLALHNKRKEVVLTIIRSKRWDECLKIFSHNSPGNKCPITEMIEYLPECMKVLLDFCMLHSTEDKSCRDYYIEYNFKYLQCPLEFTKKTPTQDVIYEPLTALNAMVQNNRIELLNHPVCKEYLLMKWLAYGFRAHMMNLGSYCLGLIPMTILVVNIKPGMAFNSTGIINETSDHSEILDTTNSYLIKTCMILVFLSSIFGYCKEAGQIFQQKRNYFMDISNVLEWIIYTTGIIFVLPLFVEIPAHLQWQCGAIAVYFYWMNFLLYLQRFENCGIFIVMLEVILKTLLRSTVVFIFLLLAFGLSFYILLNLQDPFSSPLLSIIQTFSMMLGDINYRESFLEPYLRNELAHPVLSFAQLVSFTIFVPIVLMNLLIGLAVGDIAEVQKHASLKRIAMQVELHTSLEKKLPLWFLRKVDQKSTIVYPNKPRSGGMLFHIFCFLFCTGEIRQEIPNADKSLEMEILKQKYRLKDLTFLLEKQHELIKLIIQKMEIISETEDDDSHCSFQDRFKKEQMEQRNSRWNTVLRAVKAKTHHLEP
Method in brief: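 Tetracycline-induced HEK293/TREx cells loaded with 1 μM Fluo4/AM for 60 min at room temperature. Compound added for 2 min after a 4-frame baseline, then AITC; fluorescence followed ~3 min.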

hTRPA1 [3] = biological target: T1, hTRPA1; experiment: TRPA1 patch clamp (perforated patch, AITC-activated current); format: cell-based
Method in brief: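 HEK293 TREx cells expressing the channel were recorded by amphotericin perforated patch at −40 mV holding, with 400 ms ramps from −120 to +100 mV every 5 s. Current was activated with 5 μM AITC in pH 7.4 external solution, and block of inward and outward current was measured at −80 and +80 mV with AITC still present.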

## CC(C)c1ccc(NC(=O)Cn2cnc3c2c(=O)n(C)c(=O)n3C)cc1 [Compound 200, 2-(1,3-dimethyl-2,6-dioxo-1,2,3,6-tetrahydropurin-7-yl)-N-(4-isopropylphenyl)acetamide]
Stability in rat plasma
  stable in rat plasma: ≥ 1 h
[1]
  paw volume (inflammation): decreased
hNaV1.2
  selective for TRPA1 over NaV1.2: ≥ 25 fold
hNaV1.2; read-out: hNaV1.2 IC50
  IC50: ≥ 30 µM
hERG
  selectivity ratio: ≥ 20
hTRPA1 [2]
  IC50: ≤ 5 µM
hTRPA1 [3]; Table 2, inward current, read-out: hTRPA1 Patch Inwd IC50
  IC50: ≤ 5 µM
hTRPA1 [3]; stated in Example 4 (1000 nM=355 ng/mL), read-out: IC50 against TRPA1
  IC50: 1 µM
